Measurements published in patent publication US10202427B2, “Esculentin-2CHa peptide and analogues thereof” (UNIVERSITY OF ULSTER, priority 2014, dated 2019).

Columns and labels:
BRIN-BD11 cells [1] = test: Insulin release from BRIN-BD11 cells with known modulators of insulin secretion / extracellular calcium; assay type: cell-based; conditions: 16.7 mM glucose; peptide 10^-6 M
Method: Cellular mechanism of actions of synthetic peptides was investigated by measuring insulin-release from BRIN-DB11 cells in the presence or absence of synthetic peptides (10^−6M) and known modulators of insulin-release. These additional incubations were carried in (a) medium supplemented with 16.7 mM glucose, (b) calcium-free medium supplemented with 5.6 mM glucose, (c) medium containing 5.6 mM glucose and diazoxide ([…]), (d) medium containing 5.6 mM glucose and verapamil ([…]), and (e) medium supplemented with 16.7 mM glucose and 30 mM KCl. Cells were incubated for 20 min at 37° C. and insulin concentrations in cell supernatants were measured by radioimmunoassay (Flatt and Bailey (1981)).
Without being bound by theory, by incubating BRIN-BD11 cells with the known modulators of insulin release in the absence or presence of the peptides and peptide analogues of the present invention (10^-6M), it was shown that the stimulatory effect of the peptides was inhibited in the presence of verapamil (50 μM) and chelation of extracellular calcium but completely abolished in the presence of diazoxide (200 μM). Moreover, insulin secretion increased with the co-incubation of the peptide with IBMX (200 μM), and tolbutamide (200 μM).

BRIN-BD11 cells [2] = test: Membrane potential in BRIN-BD11 cells (fluorimetric); assay type: cell-based; conditions: peptide 1 μM, 10 min, vs 5.6 mM glucose alone
Method: (§1) Changes in membrane potential and [Ca^2+]i were determined fluorimetrically using monolayers of BRIN-BD11 cells as previously described by Miguel et al (2004) and Abdel-Wahab et al (2007) using a membrane potential assay kit or a Ca^2+ assay kit (Molecular Devices, Sunnyvale, Calif., USA) according to the manufacturer's recommended protocols. Data were acquired using a FlexStation scanning fluorimeter with integrated fluid transfer workstation (Molecular Devices). The cells were incubated at 37° C. for 10 min with synthetic peptides at a concentration of 1 μM. Control incubations in the presence of 5.6 mM glucose only, 30 mM KCl, and 10 mM alanine were also carried out.

NIH Swiss TO mice = test: Acute in vivo glucose tolerance study, i.p. glucose with peptide; conditions: peptide 75 nmol/kg bw i.p. with glucose; for plasma insulin concentration after intraperitoneal glucose load: mice
Method: (§2) All animal experiments were carried out in accordance with the UK Animals (Scientific Procedures) Act 1986 and EC Directive 86/609/EEC for animal experiments. For acute in vivo glucose tolerance studies, age-matched groups (n =6) of overnight fasted male NIH Swiss TO mice received an intraperitoneal injection of either glucose alone (32% w/v) or in combination with synthetic peptides (75 nmol/kg body weight). All solutions were administered in 0.9% NaCl (5 ml/kg body weight). Blood glucose concentrations were measured by Bayer Ascencia Blood glucose meter and plasma insulin concentrations were measured by radioimmunoassay as described by Flatt and Bailey (1981). For chronic in vivo studies, male NIH Swiss TO mice were fed high fat diet or standard diet from 8 weeks of age to 27 weeks of age. Peptides were administered twice daily for 28 days. No adverse effects were observed following administration of the peptide. Parameters including body weight, energy intake, blood glucose and plasma insulin levels were monitored once in three days for 28 days. Body weight and energy intake were measured by weighing mice and food weights respectively. At the end of the study, to determine glucose tolerance, glucose (18 mmol/kg bw) was injected (i.p) to overnight fasted mice and blood glucose levels were monitored at 0, 15, 30, 60 and 90 minutes. To determine insulin sensitivity, insulin (25 U/kg bw) was injected and blood glucose levels were monitored at 0, 15, 30 and 60 minutes. To determine blood glucose profile over a period of 24 h, blood glucose levels were monitored at 0 (before peptide administration), 2, 4, 8 (before peptide administration) and 24 h (before peptide administration). Lean and fat mass were determined by DXA scanning and terminal blood and tissues were collected for ex vivo studies including pancreatic islet morphology, hormone content, lipid profile and islet function.

BRIN-BD11 cells [3] = test: Insulin release from BRIN-BD11 cells (radioimmunoassay); assay type: cell-based
Method: BRIN-BD11 cells (Public Health England; Cat. No: 10033003) were grown at 37° C. in an atmosphere of 5% CO2 and 95% air in RPMI-1640 tissue culture medium containing 10% (v/v) fetal calf serum, antibiotics (100 U/ml penicillin, 0.1 mg/ml streptomycin) and 11.1 mM glucose as previously described (Marenah et al, 2004; Conlon et al, 2008; and Mechkarska et al, 2011). The cells were pre-incubated for 40 min at 37° C. in 1.0 ml Krebs Ringer bicarbonate (KRB) buffer, pH 7.4 supplemented with either 5.6 mM or 16.7 mM glucose and 0.1% (w/v) bovine serum albumin (Conlon et al, 2008). Incubations with synthetic peptides (10^−12-3×10^−6 M; n =8) were performed for 20 min at 37° C. using the same buffer. After incubation, aliquots of cell supernatant were removed for insulin radioimmunoassay as described by Flatt and Bailey (1981).

BRIN-BD11 cells [4] = test: Intracellular calcium in BRIN-BD11 cells (fluorimetric); assay type: cell-based; conditions: peptide 1 μM, 10 min, vs 5.6 mM glucose alone
Method: as §1

[5] = test system: Swiss TO mice on high fat diet; test: Chronic in vivo study, twice-daily peptide for 28 days in high fat fed mice; conditions: for glucose tolerance: end of 28 day study, glucose 18 mmol/kg bw i.p., overnight fasted; for effect on body weight change relative to Exendin-4 / body weight change (Day 0-Day 28): twice daily; for effect on body weight change relative to Exendin-4 / body weight change (Day 0-Day 28) / plasma insulin levels during treatment: 28 days; for body weight change (Day 0-Day 28): vs lean and high fat diet saline control; for blood glucose levels during treatment: monitored once in three days for 28 days
Method: as §2, with “No adverse effects were observed following administration of the peptide.” left out
In vivo anti-diabetic effects of Exendin-4, Esculentin-2CHa-(GA30), [D-Arg7, D-Lys15,D-Lys23]-esculentin-2CHa-(GA30), and Lys15-octanoate-Esculentin-2CHa-(GA30) were assessed using Swiss TO mice fed high fat diet, with appropriate controls (saline treated mice on standard diet or high fat diet).

[6] = vs high fat diet saline control

Row | Substance | plasma insulin concentration after intraperitoneal glucose load (NIH Swiss TO mice) | glucose tolerance [5] | effect on body weight change relative to Exendin-4 [5] | body weight change (Day 0-Day 28) [5] | islet area, beta and alpha cell area [5, 6] | plasma insulin area under curve [5, 6] | other results
1 | Esculentin-2CHa | increase plasma insulin concentrations |  |  |  |  |  | insulin-release stimulatory effects in the presence of high glucose (BRIN-BD11 cells [1]): retained; membrane depolarization (BRIN-BD11 cells [2]): significantly enhanced membrane depolarization; plasma glucose after intraperitoneal glucose load (NIH Swiss TO mice; mice with diet-induced obesity diabetes (so in the source)): significantly reduced plasma glucose concentration; plasma insulin concentration after intraperitoneal glucose load (NIH Swiss TO mice; listed as esculentin-2CHa): significantly increased; insulin release from BRIN-BD11 cells (BRIN-BD11 cells [3]; 5.6 mM glucose, peptides 10^-12-3x10^-6 M, 20 min): dose-dependent stimulatory effects; intracellular calcium (BRIN-BD11 cells [4]): caused an increase in intracellular calcium
2 | Esculentin-2CHa-(GA30) | significantly increased | improved glucose tolerance, with lowered plasma glucose and insulin levels | comparable to Exendin-4 | significant reduction in body weight | significantly reduced islet area, beta and alpha cell area | markedly lower than high fat diet saline control | plasma insulin levels during treatment [5, 6]: reduced plasma insulin levels significantly from day 12; acute in vivo effects compared to native peptide (NIH Swiss TO mice): comparable to the effects of native esculentin-CHa; insulin-releasing potency compared to native peptide (BRIN-BD11 cells [3]; at lower concentrations): more potent than the native peptide at lower concentrations
3 | Exendin-4 [reference compound] |  | improved glucose tolerance, with lowered plasma glucose and insulin levels |  | significant reduction in body weight | significantly reduced islet area, beta and alpha cell area |  | 
4 | Lys15-octanoate-Esculentin-2CHa-(GA30) |  | improved glucose tolerance, with lowered plasma glucose and insulin levels | comparable to Exendin-4 | significant reduction in body weight | significantly reduced islet area, beta and alpha cell area | markedly lower than high fat diet saline control | blood glucose levels during treatment [5]: reduced blood glucose levels markedly from day 6; LDL levels [5, 6]: reduced LDL levels; plasma insulin levels during treatment [5, 6]: reduced plasma insulin levels significantly from day 12
5 | [D-Arg7, D-Lys15,D-Lys23]-esculentin-2CHa-(GA30) |  | improved glucose tolerance, with lowered plasma glucose and insulin levels | comparable to Exendin-4 | significant reduction in body weight | significantly reduced islet area, beta and alpha cell area | markedly lower than high fat diet saline control | blood glucose levels during treatment [5]: reduced blood glucose levels from day 21
6 | [Lys20, Lys27, Ser31, Ser37]-Esculentin-2CHa | significantly increased |  |  |  |  |  | acute in vivo effects compared to native peptide (NIH Swiss TO mice): comparable to the effects of native esculentin-CHa
7 | [Lys20, Lys27]-Esculentin-2CHa-(GA30) | significantly increased |  |  |  |  |  | 
